Laboratory results reported in US6048875A, “Benzothiophene, benzofuran and indole compounds” (Adir et Compagnie, priority 1998, dated 2000).

Target: recombinant active human PAI-1 (Homo sapiens, UniProt P05121)
Assay: Inhibition of the activity of PAI-1 (fibrin clot formation and breakdown monitored by turbidity in microplate wells; fibrinolytic activity)
Format: biochemical
Settings: in vitro, pH 7.4 phosphate buffer, clot absorbance two hours after fibrin formation, 2 nM PAI-1 solution, tissue plasminogen activator, fibrinogen, human thrombin, read-out: fibrinolytic activity IC50 (concentration of product that inhibits PAI-1 activity by 50%)

Chain of recombinant active human PAI-1 (P05121 24-402): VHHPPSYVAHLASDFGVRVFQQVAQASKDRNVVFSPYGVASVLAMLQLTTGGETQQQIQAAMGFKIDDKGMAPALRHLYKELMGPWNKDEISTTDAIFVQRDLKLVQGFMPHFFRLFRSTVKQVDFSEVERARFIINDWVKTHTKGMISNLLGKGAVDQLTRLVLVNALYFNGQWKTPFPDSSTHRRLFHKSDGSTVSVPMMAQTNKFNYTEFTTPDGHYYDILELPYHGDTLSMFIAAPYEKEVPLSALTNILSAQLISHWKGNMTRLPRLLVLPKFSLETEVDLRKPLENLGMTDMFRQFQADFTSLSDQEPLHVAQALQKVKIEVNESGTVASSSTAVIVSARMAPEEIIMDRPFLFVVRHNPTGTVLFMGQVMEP

| IC50 [µM] | SMILES |
| --- | --- |
| 5 | COc1cc2sc(/C=C(/C(=O)O)c3ccncc3)c(Oc3cccnc3)c2cc1OCc1ccccc1 [Example 67] |
| 2.2 | O=C(O)/C(=C/c1sc2cc(OCc3ccccc3)c(OCc3ccccc3)cc2c1Oc1ccc(-c2ccncc2)cc1)c1ccncc1 [Example 66] |
| 13 | COc1ccc(Oc2c(/C=C(/C(=O)O)c3ccncc3)sc3cc(OCc4ccccc4)c(OCc4ccccc4)cc23)cc1 |
| 7 | O=C(O)/C(=C/c1sc2cc(OCc3ccccc3)c(OCc3ccccc3)cc2c1Oc1ccc(OCc2ccccc2)cc1)c1ccncc1 |
